The nature of data set [1]: Visual inspection of crystallization. The settings on record: Tables 5A-5D. It counts as physicochemical. The arrangement: key: 1: yes crystals; 0: no crystals.
Procedure: (§1) Briefly, the Hela MKYP (Mito-Keima/YFP-Parkin) cells were seeded at 10K cells/well. EP/MTK compounds were added at seeding (cells were still in suspension). The cells were incubated with the EP/MTK compounds for 16 hours, then 1 μM FCCP/oligomycin was added for 6 hours. Prior to harvesting, cells were scored by eye under 20× magnification for the presence or absence of crystalline or aggregated compound, or round cells.
Data set [2] relates to Hela MKYP (Mito-Keima/YFP-Parkin) cells. The settings on record: human, 22 h.
Procedure: as §1
Data set [3] has as its system HeLa MKYP cells. The data set is described as follows: Human mitophagy assay (HeLa MKYP, mtKeima FACS, FCCP/oligomycin). It counts as cell-based. The method, then: Briefly, HeLa MKYP cells were plated at 10,000 cells/well in 96 well plates along with compounds at various concentrations. Following 16 hrs of incubation, cells were treated with 1 uM FCCP/oligomycin for 6 hours, then analyzed via FACS for the presence of mitochondria in lysosomes (as determined by an emissions spectrum shift from the pH-sensitive mtKeima tag). Examples are shown in FIG. 1 through FIG. 13 below.

Data set [4] has as its system HeLa MKYP cells. The data set is described as follows: Toxicity / cell death measured by DAPI staining (take-up). Format: cell-based. As to conditions: for Toxicity (% positive for DAPI takeup @ 50 μM): Table 3; for Max cell death at 25 uM compound, 1 uM FO / Cell death at 25 μM (no FO): Table 3 Supplement B. The method, then: H2O2 treatment was performed as a control for cell death as measured by DAPI staining.
Briefly, HeLa MKYP cells were plated at 10,000 cells/well in 96 well plates along with compounds at various concentrations. Following 16 hrs of incubation, cells were treated with 1 uM FCCP/oligomycin for 6 hours, then analyzed via FACS for the presence of mitochondria in lysosomes (as determined by an emissions spectrum shift from the pH-sensitive mtKeima tag).

A further data set has as its system mitotoxicity. The experiment in a line: Mitotox safety margin (therapeutic window). The settings on record: for Mitotox safety margin (Therapeutic window): class of the Ratio; for Ratio**: highest concentration with no observable mitotoxicity (μM) divided by the EC50 (μM) of the compound. Format: cell-based.
The next data set can be described thus: Solubility in 1× PBS. Format: physicochemical.
Where [5] appears, read: Homo sapiens, HeLa, Table 3, read-out: Potency at 1 μM F/O toxin* (EC50 of mitophagy activation).
Setting [6] is: Homo sapiens, HeLa, Table 3 Supplement B, read-out: Mitophagy EC50 (HeLa mKeima assay).
Where [7] appears, read: Table 3, read-out: Potency at 1 μM F/O toxin* (EC50 of mitophagy activation).

In brackets after ≈: the same amount, converted by molar mass. Where two headings read alike, the source gives them in different places.

Usually solubility stands for the dissolved amount per volume that the medium holds.

Consider `c1ccc(CNc2ncnc3nc[nH]c23)cc1` [Compound 6BAP, 6-benzylaminopurine, reference compound], for which the “Visual inspection of crystallization” value in data set [1] (1.6 μM), in data set [1] (3.1 μM), in data set [1] (6.3 μM), in data set [1] (12.5 μM), in data set [1] (25.0 μM) and in data set [1] (50.0 μM) was 0 throughout. The “Inspection of round cells” value in data set [2] (1.6 μM), in data set [2] (3.1 μM), in data set [2] (6.3 μM), in data set [2] (12.5 μM), in data set [2] (25 μM) and in data set [2] (50 μM) was 0 each time.
For the compound `FC(F)(F)c1cc2c(N[C@@H]3CCOc4ccccc43)ncnc2[nH]1` [Compound 37], the EC50 in the data set with HeLa MKYP cells [3] (setting [5]) was 6.3 µM; in the data set with HeLa MKYP cells [3] (Homo sapiens, HeLa, Table 3 Supplement A, as measured in Table 3, read-out: Potency (EC50 Max Mitophagy) (μM)*), 6.28 µM; in the data set on HeLa MKYP cells [3] (setting [6]) it was 6.25 µM. Further, in the data set with HeLa MKYP cells [4] (50 μM), the “Toxicity (% positive for DAPI takeup @ 50 μM)” value is on record as 21.1%. For the same compound, the “Toxicity (% positive for DAPI take-up at 50 μM)*” value with HeLa MKYP cells [4] (Table 3 Supplement A, 50 μM) is reported as 21.05%. Also, the “Max cell death at 25 uM compound, 1 uM FO” value (from here on “Max cell death”) in the data set with HeLa MKYP cells [4] came out at 21%. In addition, the “Cell death at 25 μM (no FO)” value with HeLa MKYP cells [4] is recorded as 3.04%. Moreover, the “Mitotox safety margin (Therapeutic window)” value (“Mitotox safety margin” for short) in the data set on mitotoxicity is on record as “+ (ratio <10)”. The “Ratio**” value in the data set with mitotoxicity is listed as 8.85. In the data set “Solubility in 1× PBS”, this compound gave a solubility of 150 µM (≈ 50.1 µg/mL).
On to `CN1CC[C@H](Nc2ncnc3[nH]c(C(F)(F)F)cc23)c2ccccc21` [Compound 81], for which the EC50 in the data set on HeLa MKYP cells [3] (setting [6]) is 1.33 µM. The EC50 in the data set on HeLa MKYP cells [3] (setting [7]) was 1.7 µM. In addition, the “Toxicity (% positive for DAPI takeup @ 50 μM)” value in the data set on HeLa MKYP cells [4] (50 μM) turned out to be 59.0%. In addition, in the data set with HeLa MKYP cells [4], the “Max cell death” value is 16% and the “Cell death at 25 μM (no FO)” value is given as 2.51%. Moreover, in the data set with mitotoxicity, the “Mitotox safety margin” value is given as “++++ (ratio 30<)” and the “Ratio**” value was 30. The solubility in “Solubility in 1× PBS” worked out at 74.8 µM (≈ 26 µg/mL).
Turning to `C[C@H]1CCc2ccccc2[C@@H]1Nc1ncnc2[nH]c(C(F)(F)F)cc12` [Compound 82], in the data set on HeLa MKYP cells [3] (setting [5]), the EC50 was found to be 1 µM. Further, the EC50 in the data set on HeLa MKYP cells [3] (setting [6]) amounted to 1.02 µM. In the data set on HeLa MKYP cells [4] (50 μM), the “Toxicity (% positive for DAPI takeup @ 50 μM)” value was determined as 28.3%. Also, in the data set on HeLa MKYP cells [4] (listed as EP-0037059), the “Max cell death” value is listed as 26% and the “Cell death at 25 μM (no FO)” value came out at 4.9%. Also, in the data set with mitotoxicity (listed as EP-0037059), the “Mitotox safety margin” value was “+ (ratio <10)” and the “Ratio**” value is reported as 8.69. This compound showed a solubility in “Solubility in 1× PBS” of 1 µM (≈ 0.346 µg/mL).
As to `C[C@H]1CCc2ccccc2[C@H]1Nc1ncnc2[nH]c(C(F)(F)F)cc12` [Compound 85], the EC50 in the data set on HeLa MKYP cells [3] (setting [6]) came to 1.08 µM. Moreover, in the data set with HeLa MKYP cells [3] (setting [7]), the EC50 was determined as 1.1 µM. Besides, the “Toxicity (% positive for DAPI takeup @ 50 μM)” value in the data set with HeLa MKYP cells [4] (50 μM) is recorded as 31.4%. In the data set on HeLa MKYP cells [4] (listed as EP-0037094), the “Max cell death” value is 31.4% and the “Cell death at 25 μM (no FO)” value is reported as 7.13%. In addition, in the data set on mitotoxicity, the “Mitotox safety margin” value is on record as “+ (ratio <10)” and the “Ratio**” value was 7.74.
`O[C@@H]1Cc2ccccc2[C@H]1Nc1ncnc2[nH]c(C(F)(F)F)cc12` [Compound 88]: the EC50 with HeLa MKYP cells [3] (setting [6]) was 15.1 µM. For the same compound, the “Toxicity (% positive for DAPI takeup @ 50 μM)” value with HeLa MKYP cells [4] (50 μM) is 7.6%. Besides, in the data set with HeLa MKYP cells [4], the “Max cell death” value was determined as 7.59% and the “Cell death at 25 μM (no FO)” value came to 2.35%. In addition, in the data set with mitotoxicity, the “Mitotox safety margin” value is given as “+ (ratio <10)” and the “Ratio**” value is listed as 1.66. In the data set “Solubility in 1× PBS”, the solubility turned out to be 19.2 µM (≈ 6.42 µg/mL).
For `O[C@H]1Cc2ccccc2[C@@H]1Nc1ncnc2[nH]c(C(F)(F)F)cc12` [Compound 90], the EC50 with HeLa MKYP cells [3] (setting [6]) was determined as 18.5 µM. The “Toxicity (% positive for DAPI takeup @ 50 μM)” value in the data set on HeLa MKYP cells [4] (50 μM) came out at 14.4%. Also, in the data set on HeLa MKYP cells [4], the “Max cell death” value was determined as 14.4% and the “Cell death at 25 μM (no FO)” value came to 2.51%. In the data set on mitotoxicity, the “Mitotox safety margin” value is “+ (ratio <10)” and the “Ratio**” value is 1.35. In “Solubility in 1× PBS”, this compound showed a solubility of 20.1 µM (≈ 6.72 µg/mL).
As for `N#Cc1cccc2c1CCCC2Nc1ncnc2[nH]c(C(F)(F)F)cc12` (stereo not shown) [Compound 92], the EC50 in the data set with HeLa MKYP cells [3] (setting [5]) was 3 µM. Also, the EC50 with HeLa MKYP cells [3] (setting [6]) was 2.98 µM. Further, the “Toxicity (% positive for DAPI takeup @ 50 μM)” value in the data set on HeLa MKYP cells [4] (50 μM) was 71.2%. In the data set with HeLa MKYP cells [4], the “Max cell death” value was determined as 71.2% and the “Cell death at 25 μM (no FO)” value stood at 57.1%. Also, in the data set on mitotoxicity, the “Mitotox safety margin” value is recorded as “+ (ratio <10)” and the “Ratio**” value is listed as 8.39. The compound also registered a solubility in “Solubility in 1× PBS” of 1 µM (≈ 0.357 µg/mL).
Consider `OC[C@@H]1CCc2ccccc2[C@H]1Nc1ncnc2[nH]c(C(F)(F)F)cc12` [Compound 94], for which the EC50 with HeLa MKYP cells [3] (setting [5]) was 1.1 µM. The EC50 with HeLa MKYP cells [3] (setting [6]) was 1.15 µM. In the data set on HeLa MKYP cells [4] (50 μM), the “Toxicity (% positive for DAPI takeup @ 50 μM)” value turned out to be 59.5%. Moreover, in the data set with HeLa MKYP cells [4], the “Max cell death” value came out at 59.535% and the “Cell death at 25 μM (no FO)” value is 27%. Further, in the data set with mitotoxicity, the “Mitotox safety margin” value is listed as “+ (ratio <10)” and the “Ratio**” value is 7.25. In addition, the solubility in the data set “Solubility in 1× PBS” came out at 12.9 µM (≈ 4.67 µg/mL).
In the case of `CC[C@@H]1CCc2ccccc2[C@@H]1Nc1ncnc2[nH]c(C(F)(F)F)cc12` [Compound 100], the EC50 with HeLa MKYP cells [3] (setting [5]) came to 1.8 µM. The EC50 in the data set with HeLa MKYP cells [3] (setting [6]) is 1.81 µM. In addition, the “Toxicity (% positive for DAPI takeup @ 50 μM)” value in the data set on HeLa MKYP cells [4] (50 μM) turned out to be 8.7%. For the same compound, in the data set with HeLa MKYP cells [4], the “Max cell death” value was found to be 8.735% and the “Cell death at 25 μM (no FO)” value amounted to 5.04%. Further, in the data set with mitotoxicity, the “Mitotox safety margin” value is listed as “++ (ratio 10< × <20)” and the “Ratio**” value is reported as 13.8. The compound further returned a solubility in “Solubility in 1× PBS” of 9.39 µM (≈ 3.38 µg/mL).
In the case of `C[C@H]1CCc2ccccc2[C@@H]1Nc1ncnc2[nH]c(C(F)(F)F)cc12` [Compound 102], the EC50 in the data set on HeLa MKYP cells [3] (setting [7]) was 0.6 µM. Also, in the data set with HeLa MKYP cells [3] (Table 3 Supplement B, listed as EP-0037882, read-out: Mitophagy EC50 (HeLa mKeima assay)), the EC50 was found to be 0.59 µM. Moreover, in the data set with HeLa MKYP cells [4] (50 μM), the “Toxicity (% positive for DAPI takeup @ 50 μM)” value was found to be 13.3%. In the data set with HeLa MKYP cells [4] (listed as EP-0037882), the “Max cell death” value was determined as 13.32% and the “Cell death at 25 μM (no FO)” value came to 3.79%. Moreover, in the data set with mitotoxicity (listed as EP-0037882), the “Mitotox safety margin” value is listed as “++++ (ratio 30<)” and the “Ratio**” value came out at 42.16. The compound also came in with a solubility in “Solubility in 1× PBS” of 1 µM (≈ 0.346 µg/mL).
As to `c1ccc2c(c1)CCC[C@H]2Nc1ncnc2[nH]c(C3CC3)cc12` [Compound 107], the EC50 in the data set with HeLa MKYP cells [3] (setting [5]) was 0.48 µM. In addition, the EC50 with HeLa MKYP cells [3] (setting [6]) worked out at 0.47 µM. Besides, the “Toxicity (% positive for DAPI takeup @ 50 μM)” value with HeLa MKYP cells [4] (50 μM) is recorded as 16.6%. In the data set with HeLa MKYP cells [4], the “Max cell death” value came out at 14.9% and the “Cell death at 25 μM (no FO)” value stood at 9.32%. In the data set with mitotoxicity, the “Mitotox safety margin” value is on record as “++++ (ratio 30<)” and the “Ratio**” value turned out to be 53.2. The solubility in “Solubility in 1× PBS” amounted to 1 µM (≈ 0.304 µg/mL).
For `c1coc(CNc2ncnc3[nH]cnc23)c1` [kinetin, reference compound], the “Toxicity (% positive for DAPI take-up @ 50 μM)” value with HeLa MKYP cells [4] (human, 50 μM) is 4.9%. The “Visual inspection of crystallization” value in data set [1] (1.6 μM), in data set [1] (3.1 μM), in data set [1] (6.3 μM), in data set [1] (12.5 μM), in data set [1] (25.0 μM) and in data set [1] (50.0 μM) was 0 each time. The “Inspection of round cells” value in data set [2] (1.6 μM), in data set [2] (3.1 μM), in data set [2] (6.3 μM), in data set [2] (12.5 μM), in data set [2] (25 μM) and in data set [2] (50 μM) was 0 each time.

For the origin of these results see patent US20220162215A1, “COMPOSITIONS AND METHODS OF USING THE SAME FOR TREATMENT OF NEURODEGENERATIVE AND MITOCHONDRIAL DISEASE” (MITOKININ, INC., priority 2019, published 2022).
